{
  "source": "patent US10131652B2",
  "about": "“Pyrimidinyloxy benzene derivatives as herbicides” (E. I. DU PONT DE NEMOURS AND COMPANY, priority 2014, dated 2018)",
  "test_in_all_cases": "Test A pre-/postemergence plant response",
  "type_in_all_cases": "in vivo",
  "conditions_in_all_cases": "0 to 100 scale, 0 is no effect, 100 is complete control",
  "key": {"[1]": {"test_system": "barnyardgrass (Echinochloa crus-galli)", "excerpt": "(§1) Seeds of plant species selected from downy bromegrass (Bromus tectorum), cocklebur (common cocklebur, Xanthium strumarium), wild oat (Avena fatua), barnyardgrass (Echinochloa crus-galli), large (Lg) crabgrass (Digitaria sanguinalis), giant foxtail (Setaria faberii), morningglory (Ipomoea spp.), velvetleaf (Abutilon theophrasti), and sorghum (Sorghum vulgare) were planted into a sandy loam soil and treated preemergence by soil drench using test a chemical formulated in a non-phytotoxic solvent mixture which included a surfactant. At the same time these species were also treated postemergence sprayed to runoff using a test chemical formulated in the same manner. Plants ranged in height from 2 to 18 cm and were in the one- to two-leaf stage for the postemergence treatment. Treated plants and untreated controls were maintained in a greenhouse for approximately 11 days, after which time all treated plants were compared to untreated controls and visually evaluated for injury. Plant response ratings, summarized in Table A, are based on a 0 to 100 scale where 0 is no effect and 100 is complete control. A dash (-) response means no test result."}, "[2]": {"test_system": "cocklebur (common cocklebur, Xanthium strumarium)", "excerpt": "as §1"}, "[3]": {"test_system": "downy bromegrass (Bromus tectorum)", "excerpt": "as §1"}, "[4]": {"test_system": "giant foxtail (Setaria faberii)", "excerpt": "as §1"}, "[5]": {"test_system": "large (Lg) crabgrass (Digitaria sanguinalis)", "excerpt": "as §1"}, "[6]": {"test_system": "morningglory (Ipomoea spp.)", "excerpt": "as §1"}, "[7]": {"test_system": "sorghum (Sorghum vulgare)", "excerpt": "as §1"}, "[8]": {"test_system": "velvetleaf (Abutilon theophrasti)", "excerpt": "as §1"}, "wild oat (Avena fatua)": {"test_system": "wild oat (Avena fatua)", "excerpt": "as §1"}, "[9]": {"conditions": "1000 g ai/ha, Post Sprayed to Runoff"}},
  "data": [
    {"compound": "Cc1ccc(Oc2ncc(Cl)cn2)c(-c2cccc(C(F)(F)F)c2)c1", "note": "[Compound 39]", "values": [
      {"measurement": "Plant response rating, Barnyardgrass", "setting": "[1]; [9]", "result": 50},
      {"measurement": "Plant response rating, Barnyardgrass", "setting": "[1]; 2000 g ai/ha, Pre Soil Drench", "result": 90},
      {"measurement": "Plant response rating, Cocklebur", "setting": "[2]; [9]", "result": 40},
      {"measurement": "Plant response rating, Cocklebur", "setting": "[2]; 2000 g ai/ha, Pre Soil Drench", "result": 0},
      {"measurement": "Plant response rating, Bromegrass, Downy", "setting": "[3]; [9]", "result": 20},
      {"measurement": "Plant response rating, Bromegrass, Downy", "setting": "[3]; 2000 g ai/ha, Pre Soil Drench", "result": 70},
      {"measurement": "Plant response rating, Foxtail, Giant", "setting": "[4]; [9]", "result": 30},
      {"measurement": "Plant response rating, Foxtail, Giant", "setting": "[4]; 2000 g ai/ha, Pre Soil Drench", "result": 100},
      {"measurement": "Plant response rating, Crabgrass, Large", "setting": "[5]; [9]", "result": 50},
      {"measurement": "Plant response rating, Crabgrass, Large", "setting": "[5]; 2000 g ai/ha, Pre Soil Drench", "result": 90},
      {"measurement": "Plant response rating, Morningglory", "setting": "[6]; [9]", "result": 30},
      {"measurement": "Plant response rating, Morningglory", "setting": "[6]; 2000 g ai/ha, Pre Soil Drench", "result": 0},
      {"measurement": "Plant response rating, Sorghum", "setting": "[7]; [9]", "result": 30},
      {"measurement": "Plant response rating, Sorghum", "setting": "[7]; 2000 g ai/ha, Pre Soil Drench", "result": 50},
      {"measurement": "Plant response rating, Velvetleaf", "setting": "[8]; [9]", "result": 60},
      {"measurement": "Plant response rating, Velvetleaf", "setting": "[8]; 2000 g ai/ha, Pre Soil Drench", "result": 70},
      {"measurement": "Plant response rating, Oat, Wild", "setting": "wild oat (Avena fatua); [9]", "result": 20},
      {"measurement": "Plant response rating, Oat, Wild", "setting": "wild oat (Avena fatua); 2000 g ai/ha, Pre Soil Drench", "result": 90}
    ]}
  ]
}
